Source: US20010056068A1, “METHOD OF TREATMENT AND PREVENTION OF NITRIC OXIDE DEFICIENCY-RELATED DISORDERS WITH CITRULLINE AND CITRULLINE DERIVATIVES” (priority 1998, published 2001)

How the values were obtained:
[1] = test system: normal and L-NAME-treated female rats; test: Systolic blood pressure by telemetry after oral citrulline in normal and L-NAME-treated female rats; format: in vivo, rat; settings: for decrease in blood pressure: 70 mg/rat at 24 h and 140 mg/rat at 48 h after pump insertion
Procedure: (§1) FIG. 1: The effect of a single administration of citrulline on the systolic blood pressure in normal and L-NAME-treated female rats. Intact female rats chronically instrumented with telemetric transducers allowing continuous monitoring of blood pressure were subcutaneusly implanted with osmotic mini-pumps releasing 50 mg/day L-NAME or 0.9% saline (controls). 24 hours after the pump insertion, the animals received 70 mg/rat citrulline orally per gavage. The systolic blood pressure was monitored for an additional 24 hours following citrulline treatment. N=5/group.
(§2) FIG. 2: The effect of multiple administration of citrulline on the systolic blood pressure in normal and L-NAME-treated female rats. Intact female rats chronically instrumented with telemetric transducers allowing continuous monitoring of blood pressure were subcutaneously implanted with osmotic mini-pumps releasing 50 mg/day L-NAME or vehicle (controls). 24 and 48 hours after the pump insertion, the animals received 70 and 140 mg/rat citrulline orally per gavage. The systolic blood pressure was monitored for an additional 24 hours following the second citrulline treatment. N=5/group
However, the systolic BP started to raise 4 hours after citrulline treatment.
In the experiment which results are presented in FIG. 2, the animals were treated twice with citrulline, i.e. 24 hours (70 mg/rat) and 48 after the start of L-NAME infusion. Similarly to FIG. 1, the first administration of citrulline was performed when the animals became hypertensive following L-NAME infusion.

[2] = test system: normal and L-NAME-treated female rats; test: Heart rate by telemetry after oral citrulline in normal and L-NAME-treated female rats; format: in vivo, rat
Procedure: as §1, with “3:” for “1:”, “heart rate” for “systolic blood pressure”, “heart rate” for “blood pressure”, “subcutaneously” for “subcutaneusly”, “N=5/group” for “N=5/group.”
At this time there was also a pronounced increase in heart rate in the L-NAME-treated rats (to 400-450 times/minute). Following a single oral citrulline (70 mg) administration, there was a rapid and very pronounced (p<0.05) decrease in heart rate to approximately 100 times/minute reaching a plateau already 1 hour after treatment. […] The effects of citrulline sustained for 24 hours in both treatment and control groups of citrulline treatment.

[3] = test system: normal and L-NAME-treated female rats; test: Observation of side-effects of citrulline administration in the rat experiments; format: in vivo; settings: oral 70 or 140 mg/rat, any experiment
Procedure: as §1, §2
FIG. 3: The effect of a single administration of citrulline on the heart rate in normal and L-NAME-treated female rats. […] The heart rate was monitored for an additional 24 hours following citrulline treatment. […]

[4] = female rats, 50 mg/day L-NAME by subcutaneous osmotic mini-pump, before citrulline
[5] = control female rats infused with vehicle, single oral 70 mg citrulline

Structure (SMILES) | blood pressure effect 24 hours after start of L-NAME infusion [1, 4] | heart rate 24 hours after start of L-NAME infusion [2, 4] | effect of second dose of 140 mg on blood pressure compared with first dose of 70 mg ([1]; L-NAME- and vehicle-treated female rats, multiple oral administration) | change in systolic blood pressure ([1]; L-NAME-treated (50 mg/day, osmotic mini-pump) female rats, single oral 70 mg citrulline 24 h after start of L-NAME infusion, N=5/group) | decrease in blood pressure ([1]; L-NAME-treated female rats, multiple oral administration) | change in blood pressure [1, 5] | time after treatment at which systolic BP started to rise [1, 5] [h] | hypertension and increase in heart rate induced by NOS inhibition with L-NAME ([1]; female rats, citrulline administered orally, overall conclusion) | decrease in blood pressure ([1]; vehicle-treated female rats, multiple oral administration) | side-effects of citrulline administration [3] | time to plateau of heart rate decrease after treatment ([2]; L-NAME-treated female rats, single oral 70 mg citrulline) [h] | heart rate after treatment ([2]; L-NAME-treated female rats, single oral 70 mg citrulline 24 h after start of L-NAME infusion, p<0.05) | duration of the effects on heart rate ([2]; both treatment (L-NAME) and control groups, single oral 70 mg citrulline) [h] | change in heart rate [2, 5]
COC(=O)[C@@H](N)CCCNC(=N)N[N+](=O)[O-] [L-NAME, N^G-nitro-L-arginine methyl ester, reference compound] | substantial hypertension | 400-450 times/minute | – | – | – | – | – | – | – | – | – | – | – | –
NC(=O)NCCC[C@H](N)C(=O)O [citrulline] | – | – | slightly more effective | rapid and significant (p<0.05) decrease in systolic blood pressure | 30-40% | reduced blood pressure | 4 | partially attenuated | 30-40% | No side-effects | 1 | approximately 100 times/minute | 24 | reduced heart rate
